Experiment: mn = molality of the nth substance listed, in mol/kg
Settings: Liquid; for viscosity: Falling or rolling sphere viscometry; for mass density: Vibrating tube method

S [hydrogen sulfide] + O=S1(=O)CCCC1
Settings | mass density [kg/m3] | viscosity [mPa·s]
303.15 K, 86.7 kPa, m1 = 0.389 | 1257 | 9.33
303.15 K, 137.1 kPa, m1 = 0.623 | 1255 | 8.58
303.15 K, 193.6 kPa, m1 = 0.915 | 1253 | 7.76
303.15 K, 230.1 kPa, m1 = 1.128 | 1251 | 6.88
303.15 K, 304.1 kPa, m1 = 1.435 | 1248 | 6.31
303.15 K, 364.8 kPa, m1 = 1.764 | 1246 | 5.55
303.15 K, 401.1 kPa, m1 = 2.032 | 1244 | 5.09
303.15 K, 503.2 kPa, m1 = 2.605 | 1242 | 4.44
303.15 K, 616.7 kPa, m1 = 3.291 | 1238 | 3.7
303.15 K, 738.4 kPa, m1 = 4.17 | 1237 | 2.95
303.15 K, 889.7 kPa, m1 = 5.327 | 1233 | 2.08
303.15 K, 1040.5 kPa, m1 = 6.929 | 1230 | 1.47
313.15 K, 160.8 kPa, m1 = 0.626 | 1246 | 6.7
313.15 K, 227 kPa, m1 = 0.884 | 1242 | 6.03
313.15 K, 273.9 kPa, m1 = 1.021 | 1242 | 5.5
313.15 K, 362.7 kPa, m1 = 1.408 | 1238 | 5.07
313.15 K, 419.7 kPa, m1 = 1.723 | 1236 | 4.54
313.15 K, 481.3 kPa, m1 = 2.009 | 1234 | 4.02
313.15 K, 586.5 kPa, m1 = 2.375 | 1231 | 3.74
313.15 K, 718.4 kPa, m1 = 3.078 | 1228 | 3.07
313.15 K, 859.9 kPa, m1 = 3.931 | 1225 | 2.44
313.15 K, 1035.5 kPa, m1 = 5.164 | 1223 | 1.8
323.15 K, 76.1 kPa, m1 = 0.222 | 1243 | 6.09
323.15 K, 118.7 kPa, m1 = 0.378 | 1242 | 5.55
323.15 K, 190.1 kPa, m1 = 0.579 | 1239 | 5.16
323.15 K, 267.2 kPa, m1 = 0.823 | 1236 | 4.49
323.15 K, 317.2 kPa, m1 = 1.009 | 1234 | 4.35
323.15 K, 430.1 kPa, m1 = 1.389 | 1229 | 3.74
323.15 K, 490.4 kPa, m1 = 1.704 | 1226 | 3.41
323.15 K, 565.2 kPa, m1 = 1.985 | 1223 | 3.09
323.15 K, 688.7 kPa, m1 = 2.348 | 1220 | 2.86
323.15 K, 843.7 kPa, m1 = 3.097 | 1216 | 2.35
323.15 K, 1009.9 kPa, m1 = 3.97 | 1215 | 1.89
333.15 K, 88.3 kPa, m1 = 0.218 | 1233 | 4.78
333.15 K, 139.2 kPa, m1 = 0.372 | 1231 | 4.65
333.15 K, 219.9 kPa, m1 = 0.571 | 1228 | 4.29
333.15 K, 314.1 kPa, m1 = 0.811 | 1225 | 3.86
333.15 K, 370.5 kPa, m1 = 0.995 | 1223 | 3.58
333.15 K, 505.9 kPa, m1 = 1.368 | 1219 | 3.17
333.15 K, 576.7 kPa, m1 = 1.681 | 1215 | 2.8
333.15 K, 664 kPa, m1 = 1.959 | 1212 | 2.55
333.15 K, 800 kPa, m1 = 2.462 | 1208 | 2.29
343.15 K, 96 kPa, m1 = 0.205 | 1223 | 3.95
343.15 K, 159.7 kPa, m1 = 0.347 | 1220 | 3.74
343.15 K, 253.3 kPa, m1 = 0.563 | 1218 | 3.5
343.15 K, 368.1 kPa, m1 = 0.797 | 1215 | 3.13
343.15 K, 428.2 kPa, m1 = 0.981 | 1214 | 2.99
343.15 K, 590.6 kPa, m1 = 1.347 | 1211 | 2.65
343.15 K, 678.9 kPa, m1 = 1.654 | 1204 | 2.34
343.15 K, 782.1 kPa, m1 = 1.927 | 1202 | 2.18
343.15 K, 914 kPa, m1 = 2.221 | 1200 | 2.01
343.15 K, 1119.8 kPa, m1 = 2.876 | 1196 | 1.65
353.15 K, 116.1 kPa, m1 = 0.202 | 1216 | 3.24
353.15 K, 179.9 kPa, m1 = 0.319 | 1214 | 3.11
353.15 K, 288.8 kPa, m1 = 0.546 | 1210 | 2.69
353.15 K, 427.9 kPa, m1 = 0.802 | 1209 | 2.53
353.15 K, 494.2 kPa, m1 = 0.965 | 1206 | 2.46
353.15 K, 683.1 kPa, m1 = 1.324 | 1199 | 2.2
353.15 K, 795.9 kPa, m1 = 1.624 | 1195 | 1.98
353.15 K, 911.1 kPa, m1 = 1.894 | 1193 | 1.81
363.15 K, 131.7 kPa, m1 = 0.195 | 1208 | 2.71
363.15 K, 201.9 kPa, m1 = 0.304 | 1206 | 2.61
363.15 K, 327.1 kPa, m1 = 0.504 | 1202 | 2.46
363.15 K, 494.7 kPa, m1 = 0.767 | 1199 | 2.21
363.15 K, 565.7 kPa, m1 = 0.912 | 1196 | 2.05
363.15 K, 784.2 kPa, m1 = 1.3 | 1190 | 1.74
363.15 K, 928.7 kPa, m1 = 1.591 | 1185 | 1.5
363.15 K, 1052.3 kPa, m1 = 1.86 | 1184 | 1.37

O=S1(=O)CCCC1 [sulfolane] + O=C=O
Settings | mass density [kg/m3] | viscosity [mPa·s]
303.15 K, 118.4 kPa, m2 = 0.103 | 1260 | 9.99
303.15 K, 191.2 kPa, m2 = 0.174 | 1259 | 9.8
303.15 K, 316.5 kPa, m2 = 0.284 | 1258 | 9.36
303.15 K, 495.3 kPa, m2 = 0.438 | 1256 | 8.97
303.15 K, 648.5 kPa, m2 = 0.598 | 1255 | 8.34
303.15 K, 777.7 kPa, m2 = 0.709 | 1254 | 7.85
303.15 K, 1063.8 kPa, m2 = 1.001 | 1253 | 7
303.15 K, 1253.8 kPa, m2 = 1.205 | 1252 | 6.48
303.15 K, 1447.1 kPa, m2 = 1.423 | 1252 | 5.96
313.15 K, 121.8 kPa, m2 = 0.0954 | 1252 | 7.98
313.15 K, 200.8 kPa, m2 = 0.1579 | 1250 | 7.73
313.15 K, 324.9 kPa, m2 = 0.2571 | 1249 | 7.61
313.15 K, 526 kPa, m2 = 0.4296 | 1247 | 7.13
313.15 K, 732.9 kPa, m2 = 0.5763 | 1246 | 6.88
313.15 K, 855.1 kPa, m2 = 0.6803 | 1245 | 6.36
313.15 K, 1169.6 kPa, m2 = 0.9594 | 1243 | 5.81
313.15 K, 1383.5 kPa, m2 = 1.159 | 1243 | 5.28
313.15 K, 1644.1 kPa, m2 = 1.385 | 1242 | 4.99
323.15 K, 141.1 kPa, m2 = 0.093 | 1242 | 6.21
323.15 K, 238.4 kPa, m2 = 0.163 | 1241 | 6.1
323.15 K, 392.8 kPa, m2 = 0.266 | 1239 | 5.97
323.15 K, 632 kPa, m2 = 0.417 | 1237 | 5.69
323.15 K, 817.7 kPa, m2 = 0.557 | 1235 | 5.46
323.15 K, 993.9 kPa, m2 = 0.692 | 1234 | 5.16
323.15 K, 1413.4 kPa, m2 = 1.019 | 1232 | 4.68
323.15 K, 1706.6 kPa, m2 = 1.217 | 1231 | 4.28
323.15 K, 2006.9 kPa, m2 = 1.472 | 1231 | 3.98
333.15 K, 153.2 kPa, m2 = 0.091 | 1233 | 5.14
333.15 K, 263.6 kPa, m2 = 0.158 | 1232 | 5.09
333.15 K, 436.2 kPa, m2 = 0.257 | 1229 | 4.92
333.15 K, 694.6 kPa, m2 = 0.415 | 1226 | 4.5
333.15 K, 896.4 kPa, m2 = 0.54 | 1224 | 4.4
333.15 K, 1035.8 kPa, m2 = 0.626 | 1223 | 4.27
333.15 K, 1456.6 kPa, m2 = 0.886 | 1220 | 3.87
333.15 K, 1761.6 kPa, m2 = 1.061 | 1218 | 3.69
343.15 K, 168.2 kPa, m2 = 0.087 | 1223 | 4.19
343.15 K, 296.7 kPa, m2 = 0.155 | 1222 | 4.06
343.15 K, 477.6 kPa, m2 = 0.249 | 1219 | 4
343.15 K, 758.5 kPa, m2 = 0.402 | 1216 | 3.61
343.15 K, 978.6 kPa, m2 = 0.526 | 1213 | 3.63
343.15 K, 1118.9 kPa, m2 = 0.603 | 1211 | 3.46
343.15 K, 1538.6 kPa, m2 = 0.853 | 1207 | 3.24
343.15 K, 1852.6 kPa, m2 = 1.011 | 1205 | 3.02
343.15 K, 2326.1 kPa, m2 = 1.305 | 1203 | 2.92
353.15 K, 178.9 kPa, m2 = 0.08 | 1215 | 3.5
353.15 K, 305 kPa, m2 = 0.137 | 1212 | 3.27
353.15 K, 509.4 kPa, m2 = 0.232 | 1209 | 3.14
353.15 K, 828 kPa, m2 = 0.38 | 1205 | 3.16
353.15 K, 1248.9 kPa, m2 = 0.581 | 1199 | 3
353.15 K, 1720.3 kPa, m2 = 0.822 | 1194 | 2.78
353.15 K, 1911.1 kPa, m2 = 0.924 | 1192 | 2.62
363.15 K, 188.8 kPa, m2 = 0.076 | 1205 | 2.84
363.15 K, 327.8 kPa, m2 = 0.133 | 1203 | 2.74
363.15 K, 555 kPa, m2 = 0.225 | 1199 | 2.64
363.15 K, 902.8 kPa, m2 = 0.366 | 1194 | 2.49
363.15 K, 1404.2 kPa, m2 = 0.573 | 1189 | 2.39
363.15 K, 2015 kPa, m2 = 0.822 | 1185 | 2.24

— the NIST ThermoML archive (doi:10.1016/j.jct.2015.01.001)
